Reference: patent publication US4097595A, “7-Amino-thiazolyl acetamido cephalosporanic acids” (Roussel Uclaf, priority 1976, dated 1978)
≈ marks a conversion by molar mass, not a printed value. Read-outs that look alike come from different tables or passages of the source.

How the values were obtained:
[1] = test system: Staphylococcus aureus UC 1 061 (penicillin sensible); experiment: MIC, dilution method in liquid media, Staphylococcus aureus UC 1061, penicillin sensible; assay type: cell-based
Protocol: (§1) A series of tubes were prepared with the same quantity of sterile nutrive media and increasing quantities of the test product was distributed to each tube. Then, each tube was seeded with a bacterial strain and after incubation at 37° C for 24 or 48 hours, the inhibition of the growth was determined by transillumination which permitted determination of the minimum inhibitory concentrations (M.I.C.) in μg/ml.

[2] = test system: Staphylococcus aureus UC 1128 (penicillin resistant); experiment: MIC, dilution method in liquid media, Staphylococcus aureus UC 1128, penicillin resistant; assay type: cell-based
Protocol: as §1

[3] = test system: Streptococcus hemolyticus; experiment: MIC, dilution method in liquid media, Streptococcus hemolyticus; assay type: cell-based; conditions: Streptococcus pyogenes
Protocol: as §1

[4] = test system: Streptococcus faecalis 5 432; experiment: MIC, dilution method in liquid media, Streptococcus faecalis 5 432; assay type: cell-based
Protocol: as §1

Bacillus subtilis = experiment: MIC, dilution method in liquid media, Bacillus subtilis; assay type: cell-based
Protocol: as §1

[5] = test system: Escherichia Coli UC 1 020; experiment: MIC, dilution method in liquid media, Escherichia Coli UC 1 020; assay type: cell-based
Protocol: as §1

[6] = test system: Escherichia Coli UC 1 261; experiment: MIC, dilution method in liquid media, Escherichia Coli UC 1 261; assay type: cell-based
Protocol: as §1

[7] = test system: Klebsiella pneumoniae 52 145; experiment: MIC, dilution method in liquid media, Klebsiella pneumoniae 52 145; assay type: cell-based; conditions: read-out: MIC
Protocol: as §1

[8] = test system: Proteus mirabilis (indol); experiment: MIC, dilution method in liquid media, Proteus mirabilis (indol); assay type: cell-based
Protocol: as §1

[9] = test system: Staphylococcus aureus 54 146; experiment: MIC, dilution method in liquid media, Staphylococcus aureus 54 146; assay type: cell-based; conditions: read-out: MIC
Protocol: as §1

[10] = test system: Escherichia Coli (T) 0 26 B 6; experiment: MIC, dilution method in liquid media, Escherichia Coli (T) 026 B6; assay type: cell-based
Protocol: as §1

[11] = test system: staphylococcus aureus 54,146; experiment: In vivo activity, experimental staphylococcia in mice; conditions: for Mice living after 8th day: subcutaneous, 1, 5 and 24 hours after infection
Protocol: The antibacterial activity of the compound of Example 2 was determined against experimental staphylococcia in mice. Lots of 10 male mice weighing about 21.5 g were infected by intraperitoneal injection of 0.5 ml of a 24 hour culture of staphylococcus aureus 54,146 in Pasteur nutritive broth diluted by 1/5 with distilled water. The test product was administered subcutaneously 1 hour, 5 hours and 24 hours after the infection in different doses.

[12] = test system: Proteus mirabilis No. A 235; experiment: In vivo activity, experimental infection of Proteus mirabilis in mice; conditions: for Mice living on 8th day: subcutaneous, 1, 5 and 24 hours after infection, controls 0/10; for Mortality after 21 h 15: subcutaneous, number of dead of 10 mice, controls 10
Protocol: The product of Example 2 was studied for its effect on an experimental infection of Proteus mirabilis in mice. Groups of 10 male mice weighing about 22.5 g were infected by an intraperitoneal injection of 0.5 ml of a 24 hour culture in Pasteur nutritive media of Proteus mirabilis No. A 235 diluted by 1/4 with distilled water.
The mice received a subcutaneous injection 1 hour, 5 hours and 24 hours after the infection of a quantity of the product of Example 2 and the mortality was noted during 8 days.

[13] = test system: Escherichia Coli (T) 026B6; experiment: Experimental infection with Escherichia Coli (T) 026B6 in mice; assay type: in vivo; conditions: for Mice living on 8th day: subcutaneous, 1, 5 and 24 hours after infection, control 0/10
Protocol: Again, the activity of the product of Example 2 was tested against experimental infection of Escherichia Coli in mice. Groups of 10 male mice weighing about 23 g were infected with an intraperitoneal injection of 0.5 ml of a 24 hour culture in Pasteur nutritive media of Escherichia Coli (T) 026B6 diluted by 1/6 with distilled water. The test product was administered subcutaneously one hour, five hours and 24 hours after the infection and the mortality was determined during 8 days.

[14] = test system: Streptococcus pyogenes A 561; experiment: MIC, dilution method in liquid media, Streptococcus pyogenes A 561; assay type: cell-based
Protocol: as §1

[15] = test system: Escherichia Coli R 55 123 D; experiment: MIC, dilution method in liquid media, Escherichia Coli R 55 123 D; assay type: cell-based; conditions: COLIR55123D
Protocol: as §1

Salmonella Typhimurium = experiment: MIC, dilution method in liquid media, Salmonella Typhimurium; assay type: cell-based; conditions: Salmonella enterica, strain 420 (Tables II, IV)
Protocol: as §1

[16] = Enterococcus faecalis, 5432, 24 h, read-out: MIC
[17] = Klebsiella pneumoniae, 52145, 24 h
[18] = Klebsiella pneumoniae, 52145, 48 h
[19] = Staphylococcus aureus, 54146, 24 h
[20] = Staphylococcus aureus, 54146, 48 h
[21] = 0.1 mg in each injection, subcutaneous, number of dead of 10 mice
[22] = 0.25 mg in each injection, subcutaneous, number of dead of 10 mice
[23] = 0.5 mg in each injection, subcutaneous, number of dead of 10 mice

`CC(=O)SCC1=C(C(=O)O)N2C(=O)C(NC(=O)Cc3csc(N)n3)[C@H]2SC1` (some centres unmarked) [Example 2, 7-[2-(2-amino-4-thiazolyl)-acetamido]-3-acetylthiomethyl-ceph-3-eme-4-carboxylic acid] gave an MIC ([1]; 24 H, Staphylococcus Oxford UC 1061, penicillin sensible) of 0.5 µg/mL (≈ 1.17 µM), an MIC ([1]; 48 H, Staphylococcus Oxford UC 1061, penicillin sensible) of 0.5 µg/mL (≈ 1.17 µM) and an MIC ([2]; UC1128, 24 H) of 1 µg/mL (≈ 2.33 µM). For the same molecule, the MIC ([2]; UC1128, 48 H) was 1 µg/mL (≈ 2.33 µM), the MIC ([3]; 24 h) was 0.05 µg/mL (≈ 0.117 µM) and the MIC ([3]; 48 H, in bacto Todd Hewitt Broth pH = 7.8, read-out: MIC) was 0.1 µg/mL (≈ 0.233 µM). The MIC [4, 16] was 5 µg/mL (≈ 11.7 µM), the MIC ([4]; Enterococcus faecalis, 5432, 48 h, read-out: MIC) was over 40 µg/mL and the MIC (Bacillus subtilis; 24 h, read-out: MIC) was 0.1 µg/mL (≈ 0.233 µM). For the same molecule, the MIC (Bacillus subtilis; 48 h, read-out: MIC) was 0.5 µg/mL (≈ 1.17 µM), the MIC ([5]; UC1, 24 h, read-out: MIC) was 2 µg/mL (≈ 4.67 µM) and the MIC ([5]; UC1, 48 h, read-out: MIC) was 5 µg/mL (≈ 11.7 µM). For the same molecule, the MIC ([6]; UC1, 24 h) was 1 µg/mL (≈ 2.33 µM), the MIC ([6]; UC1, 48 h) was 1 µg/mL (≈ 2.33 µM) and the MIC [7, 17] was 0.5 µg/mL (≈ 1.17 µM). The MIC [7, 18] was 0.5 µg/mL (≈ 1.17 µM), the MIC ([8]; 24 h, read-out: MIC) was 1 µg/mL (≈ 2.33 µM) and the MIC ([8]; 48 h, read-out: MIC) was 1 µg/mL (≈ 2.33 µM). It also gave an MIC [9, 19] of 0.6 µg/mL (≈ 1.4 µM), an MIC [9, 20] of 0.6 µg/mL (≈ 1.4 µM) and an MIC ([10]; 24 h) of 3 µg/mL (≈ 7 µM). The MIC ([10]; 48 h) was 3 µg/mL (≈ 7 µM), the “Mice living after 8th day” value ([11]; 0.1 mg in each injection) was 0/10 and the “Mortality after 9 h 45” value [11, 21] was 1. The “Mortality after 22 h 30” value [11, 21] was 8, the “Mortality after 29 h” value [11, 21] was 1 and the “Mice living after 8th day” value ([11]; 0.25 mg in each injection) was 6/10. For the same molecule, the “Mortality after 22 h 30” value [11, 22] was 1, the “Mortality after 25 h 30” value [11, 22] was 1 and the “Mortality after 4 d” value [11, 22] was 1. The “Mortality after 5 d” value [11, 22] was 1, the “Mice living after 8th day” value ([11]; 0.5 mg in each injection) was 9/10 and the “Mortality after 4 d” value [11, 23] was 1. The “Mice living after 8th day” value ([11]; 0.75 mg in each injection) was 10/10, the “Mice living after 8th day” value ([11]; 1 mg in each injection) was 10/10 and the “Mice living on 8th day” value ([12]; 0.1 mg in each injection) was 8/10. The “Mortality after 21 h 15” value ([12]; 0.1 mg in each injection) was 2, the “Mice living on 8th day” value ([12]; 0.25 mg in each injection) was 10/10 and the “Mortality after 21 h 15” value ([12]; 0.25 mg in each injection) was 0. For the same molecule, the “Mice living on 8th day” value ([12]; 0.5 mg in each injection) was 10/10, the “Mortality after 21 h 15” value ([12]; 0.5 mg in each injection) was 0 and the “Mice living on 8th day” value ([12]; 0.75 mg in each injection) was 10/10. For the same molecule, the “Mortality after 21 h 15” value ([12]; 0.75 mg in each injection) was 0, the “Mice living on 8th day” value ([13]; 0.5 mg in each injection) was 0/10 and the “Mortality at 21 h 15” value [13, 23] was 6. The “Mortality at 24 h 15” value [13, 23] was 1, the “Mortality at 27 h 45” value [13, 23] was 1 and the “Mortality at 45 h 30” value [13, 23] was 1. The “Mortality at 70 h” value [13, 23] was 1, the “Mice living on 8th day” value ([13]; 1 mg in each injection) was 9/10 and the “Mortality at 30 h 45” value ([13]; 1 mg in each injection, subcutaneous, number of dead of 10 mice) was 1.

`Nc1nc(CC(=O)NC2C(=O)N3C(C(=O)O)=C(CSC(=O)c4csc(=O)[nH]4)CSC23)cs1` (centres unmarked) [Example 4, 7-[2-(2-amino-4-thiazolyl)-acetamido]-3-[{(2-oxo-(3H)-thiazolin-4-yl)-carbonyl}-thiomethyl]-ceph-3-eme-4-carboxylic acid] was tested, and the MIC ([1]; UC1, 24 H, penicillin sensible) was 0.2 µg/mL (≈ 0.389 µM), the MIC ([1]; UC1, 48 H, penicillin sensible) was 0.5 µg/mL (≈ 0.974 µM) and the MIC ([2]; UC1128, 24 H) was 1 µg/mL (≈ 1.95 µM). The MIC ([2]; UC1128, 48 H) was 1 µg/mL (≈ 1.95 µM), the MIC [4, 16] was 10 µg/mL (≈ 19.5 µM) and the MIC ([4]; Enterococcus faecalis, 5432, 48 h) was over 40 µg/mL. It also gave an MIC (Bacillus subtilis; 24 h, read-out: MIC) of 0.1 µg/mL (≈ 0.195 µM), an MIC (Bacillus subtilis; 48 h) of 0.1 µg/mL (≈ 0.195 µM) and an MIC ([5]; UC1, 24 h) of 2 µg/mL (≈ 3.89 µM). The MIC ([5]; UC1, 48 h) was 2 µg/mL (≈ 3.89 µM), the MIC ([6]; UC1, 24 h, read-out: MIC) was 1 µg/mL (≈ 1.95 µM) and the MIC ([6]; UC1, 48 h, read-out: MIC) was 1 µg/mL (≈ 1.95 µM). The MIC [7, 17] was 0.1 µg/mL (≈ 0.195 µM), the MIC [7, 18] was 0.2 µg/mL (≈ 0.389 µM) and the MIC ([8]; 24 H, A 235, read-out: MIC) was 0.6 µg/mL (≈ 1.17 µM). The MIC ([8]; 48 H, A 235, read-out: MIC) was 0.6 µg/mL (≈ 1.17 µM), the MIC [9, 19] was 0.5 µg/mL (≈ 0.974 µM) and the MIC [9, 20] was 1 µg/mL (≈ 1.95 µM). The MIC ([10]; 24 h) was 2 µg/mL (≈ 3.89 µM), the MIC ([10]; 48 h) was 3 µg/mL (≈ 5.84 µM) and the MIC ([14]; A561, 24 h) was 0.1 µg/mL (≈ 0.195 µM). The MIC ([14]; A561, 48 h) was 0.2 µg/mL (≈ 0.389 µM), the MIC ([15]; 24 h) was 5 µg/mL (≈ 9.74 µM) and the MIC ([15]; 48 h, read-out: MIC) was 10 µg/mL (≈ 19.5 µM). The MIC (Salmonella Typhimurium; 24 H) was 3 µg/mL (≈ 5.84 µM) and the MIC (Salmonella Typhimurium; 48 H) was 3 µg/mL (≈ 5.84 µM).
